This is an account of results in patent US5929079A, “Trans cyclopentanyl azaadenyl analogs useful as immunosuppressants” (Hoechst Marion Roussel, Inc., priority 1997, dated 1999).

Each structure is given as a SMILES string. Structures can show the parent of a compound that is named as a salt.

For test [1], the system named is endotoxin lethality in CF1 mice. Briefly: Mouse endotoxin lethality model (D-galactosamine/LPS septic shock). In kind it is in vivo. The note with it: 100 mg/kg i.p., pretreated at t=-1 hr; death observed over 8-72 hours. The method, then:
Using the method of Silverstein, (J. Exp. Med. 173, 357 (1991)) a mouse endotoxin lethality model may be used to determine if a compound of formula (1) has the ability to inhibit endotoxin-induced septic shock which is dependent on the production of Tumor Necrosis Factor-a (TNF-α). CF1 mice pretreated at time (t)=-1 hr with drug are challenged with 18 mg of D-glactoseamine and 50 ng of LPS, then observed for death over an 8-72 hour period.

For test [2], the system named is macrophage antigen presentation to Lewis (LEW/N) rat T-cell hybridoma (Interleukin-2 production). Put plainly: Regulation of antigen presentation to rat T-cell hybridoma (Interleukin-2 production). In kind it is cell-based. The method, then: Using the method of Ku (Cellular Immunology 130,(1990)), and a Lewis (LEW/N) rat T-cell hybridoma reactive with the protein methylated bovine serum albumin (mBSA), the ability of a compound of formula (1) to regulate M.phi. antigen presentation in vitro may be measured. Peritoneal macrophages obtained from LEW/N rats are plated into tissue culture and treated with 100 ug of mBSA and drug. A control is prepared similarly. After a period of 18 hours the cells are washed and incubated with the T-cell hybridoma for an additional 12 hours. Supernatants from these cultures are obtained and measured for content of Interleukin-2, a T-cell derived lymphokine which is roduced by activated T-cells. […] Rat macrophage antigen presentation and the subsequent production of Interleukin-2 are inhibited when rug is administered over a concentration range from 0.1 to 100 uM as illustrated in the following table.

For the molecule `Nc1ncnc2c1ncn2[C@@H]1CC[C@@H](O)C1` [(1R,3R)-TRANS-1(9-ADENYL)CYCLOPENTAN-3-OL HYDROCHLORIDE], in test [1], the “protection against endotoxin lethality” value is reported as “protects against endotoxin lethality”. Moreover, in test [2] (0.1 to 100 uM), the “Rat macrophage antigen presentation and subsequent production of Interleukin-2” value is “inhibited”. The T-cell activation entry in test [2] (in vitro) is “inhibits T-cell ctivation”.
